Experimental data reported in EP4389746A2, “P2X3 RECEPTOR ANTAGONISTS” (Recordati Industria Chimica E Farmaceutica SPA, priority 2022, dated 2024).

Test system: Sprague-Dawley Rats
Experiment: Two bottle taste test in rats: dysgeusia effect of P2X3 antagonists
Assay type: in vivo
Details: rats water fasted overnight; bottles presented 30 minutes after treatment for 15 minutes (Fig. 4)
Procedure: C57BL/6J mice, Hartley Guinea pigs and Sprague-Dawley Rats from Charles River Italy were used in the experiments. Animals were housed with free access to food and water and maintained on a forced 12 hr light-dark cycle at 22-24°C for at least one week before the experiments were carried out. The animals were handled according to internationally accepted principles for care of laboratory animals (Directive 2010/63/EU of the European Parliament and of the Council of 22 September 2010).
(Fig 3) "Two bottle taste test" in rats - Dysgeusia effect of P2X3 antagonists
Rats were water fasted overnight. The day of the experiment the animals were treated with tested compounds and 30 minutes later two bottles were presented for 15 minutes, the first one containing water and the second bottle containing Quinine, a substance showing a bitter taste. The volume of liquid drunk in 15 minutes from each bottle was recorded and expressed as percentage of preference (Fig.4). Statistical analysis was performed on absolute values (mean ± SEM) using one-way ANOVA and Tukey's test for multiple comparisons.

With `COc1cc(C(C)C)c(Oc2cnc(N)nc2N)cc1S(N)(=O)=O` [Gefapixant, reference compound] the “preference between water and Quinine” value was “showed altered taste function and poor preference between water and Quinine bottles”.
